Experimental findings from patent US8093385B2, “Leukotriene B4 inhibitors” (Hoffmann-La Roche Inc., priority 2007, dated 2012) are described below.

Structures can show the parent of a compound that is named as a salt.

The first assay concerns BLT1 and BLT2 receptors. In words: Ca2+ Flux Assay for LTB4 Antagonist Assay. Conditions: inhibition of LTB4-induced Ca2+ flux (FLIPR), Retinoic Acid induced HL-60 cells endogenously expressing BLT1 and BLT2. Type of assay: cell-based, Human. The protocol: Ca^2+ Flux Assay for LTB4 Antagonist Assay
Seventy two hours prior to experiment cells are counted using ViaCount reagent, centrifuged and resuspended at 2.0×10^5 cells /ml density with the complete growth media containing 1 μM Retinoic Acid (Sigma).
On a day of the experiment loading buffer (Calcium-3 Assay Kit, Molecular Devices) was prepared by dissolving the contents of one vial (Express Kit) into 500 ml Hank's Balanced Salt Solution containing 20 mM HEPES and 5 mM probenecid. Equal volume of the loading buffer was mixed with the replacement buffer (Hank's Balanced Salt Solution containing 20 mM HEPES, 0.05% BSA and 5 mM probenecid). Retinoic Acid induced HL-60 cells were counted using ViaCount reagent, centrifuged and resuspended at 2.0×10^6 cells /ml density with the loading buffer/replacement buffer, dispensed into 384 well black/clear microplates (Falcon)(25 μl/well) and placed in a 37° C./5% CO2 incubator for 1 hour.
During the incubation, test compounds were prepared at 6× the desired concentration in HBSS/20 mM HEPES/0.05% BSA as well as LTB4 (Biomol) was prepared at 2.2× concentration in HBSS/20 mM HEPES/0.5% BSA buffer.
After the incubation, both the cell and compound plates were brought to the FLIPR and 5 μl of the diluted compounds were transferred to the cell plates by the FLIPR. Plates were then incubated for 30min at room temperature. After the ½ hour incubation, plates were returned to the FLIPR and 25 μl of 2.2× LTB4 was added to the cell plates. During the assay, fluorescence readings were taken simultaneously from all 384 wells of the cell plate every 1.5 seconds. Five readings were taken to establish a stable baseline, then 25 μl (LTB4) of sample was rapidly and simultaneously added to each well of the cell plate. The fluorescence was continuously monitored before, during and after sample addition for a total elapsed time of 100 seconds. Responses (increase in peak fluorescence) in each well following agonist addition was determined. The initial fluorescence reading from each well, prior to ligand stimulation, was used a zero baseline value for the data from that well. The responses are expressed as % inhibition of the neutral control (neutral control: wells that received buffer plus DMSO but no test compound).
In turn, `O=C(O)CCCOc1cccc(CCCCCCOc2cc(-c3cccc(F)c3)cc(-c3ccc4c(c3)OCO4)c2)c1CCC(=O)O` [Example 17, 4-{3-[6-(5-Benzo[1,3]dioxol-5-yl-3′-fluoro-biphenyl-3-yloxy)-hexyl]-2-(2-carboxy-ethyl)-phenoxy}-butyric acid bis-sodium salt] yielded an IC50 of 1.19 nM.

The assay is the same for the next values; noted with them: inhibition of LTB4-induced Ca2+ flux (FLIPR), Retinoic Acid induced HL-60 cells endogenously expressing BLT1 and BLT2; read-out: IC50.
Regarding `O=C(O)CCCOc1cccc(CCCCCCOc2cc(-c3ccncc3)cc(-c3ccncc3)c2)c1CCC(=O)O` [Example 1, 4-{2-(2-Carboxy-ethyl)-3-[6-(3,5-di-pyridin-4-yl-phenoxy)-hexyl]-phenoxy}-butyric acid], the IC50 worked out at 0.07 nM. Regarding `O=C(O)CCCOc1cccc(CCCCCCOc2cc(-c3ccccc3)cc(-c3ccccc3)c2)c1CCC(=O)O` [Example 2, 4-{2-(2-Carboxy-ethyl)-3-[6-([1,1′,3,1″]terphenyl-5′-yloxy)-hexyl]-phenoxy}-butyric acid], the IC50 was determined as 0.21 nM. Take `O=C(O)CCCOc1cccc(CCCCCCOc2cc(-c3ccnc(F)c3)cc(-c3ccnc(F)c3)c2)c1CCC(=O)O` [Example 3, 4-[3-{6-[3,5-Bis-(2-fluoro-pyridin-4-yl)-phenoxy]-hexyl}-2-(2-carboxy-ethyl)-phenoxy]-butyric acid]: the IC50 worked out at 0.17 nM. On the same count and under the same terms, as for `O=C(O)CCCOc1cccc(CCCCCCOc2cc(-c3cccnc3)cc(-c3cccnc3)c2)c1CCC(=O)O` [Example 4, 4-{2-(2-Carboxy-ethyl)-3-[6-(3,5-di-pyridin-3-yl-phenoxy)-hexyl]-phenoxy}-butyric acid], the figure is 0.64 nM.

For `O=C(O)CCCOc1cccc(CCCCCCSc2cc(-c3ccccc3)cc(-c3ccccc3)c2)c1CCC(=O)O` [Example 7, 4-{2-(2-Carboxy-ethyl)-3-[6-([1,1′;3′,1″]terphenyl-5′-ylsulfanyl)-hexyl]-pheoxy}-butyric acid], the IC50 was found to be 75 nM. On to `O=C(O)CCCOc1cccc(CCCCCCOc2cc(-c3ccsc3)cc(-c3ccc4c(c3)OCO4)c2)c1CCC(=O)O` [Example 12, 4-{3-[6-(3-Benzo[1,3]dioxol-5-yl-5-thiophen-3-yl-phenoxy)-hexyl]-2-(2-carboxy-ethyl)-phenoxy}-butyric acid], for which the IC50 was 0.21 nM. In the case of `O=C(O)CCCOc1cccc(CCCCCCOc2cc(-c3ccccc3)cc(-c3ccsc3)c2)c1CCC(=O)O` [Example 13, 4-{2-(2-Carboxy-ethyl)-3-[6-(5-thiophen-3-yl-biphenyl-3-yloxy)-hexyl]-phenoxy}-butyric acid], the IC50 came out at 0.36 nM. Turning to `O=C(O)CCCOc1cccc(CCCCCCOc2cc(-c3ccncc3)cc(-c3ccsc3)c2)c1CCC(=O)O` [Example 14, 4-{2-(2-Carboxy-ethyl)-3-[6-(3-pyridin-4-yl-5-thiophen-3-yl-phenoxy)-hexyl]-phenoxy}-butyric acid], the IC50 was 0.2 nM. `O=C(O)CCCOc1cccc(CCCCCCOc2cc(-c3ccsc3)cc(-c3ccnc(Cl)c3)c2)c1CCC(=O)O` [Example 15]: the IC50 stood at 0.57 nM. For `O=C(O)CCCOc1cccc(CCCCCCOc2cc(-c3cncnc3)cc(-c3ccsc3)c2)c1CCC(=O)O` [Example 16, 4-{2-(2-Carboxy-ethyl)-3-[6-(3-pyrimidin-5-yl-5-thiophen-3-yl-phenoxy)-hexyl]-phenoxy}-butyric acid], the IC50 turned out to be 0.39 nM. `O=C(O)CCCOc1cccc(CCCCCCOc2cc(-c3ccncc3)cc(-c3cccc(F)c3)c2)c1CCC(=O)O` [Example 18, 4-{2-(2-Carboxy-ethyl)-3-[6-(3′-fluoro-5-pyridin-4-yl-biphenyl-3-yloxy)-hexyl]-phenoxy}-butyric acid]: the IC50 worked out at 0.18 nM. As to `O=C(O)CCCOc1cccc(CCCCCCOc2cc(-c3ccncc3)cc(-c3ccc4c(c3)OCO4)c2)c1CCC(=O)O` [Example 20, 4-{3-[6-(3-Benzo[1,3]dioxol-5-yl-5-pyridin-4-yl-phenoxy)-hexyl]-2-(2-carboxy-ethyl)-phenoxy}-butyric acid], the IC50 came to 0.21 nM. For the molecule `O=C(O)CCCOc1cccc(CCCCCCOc2cc(-c3ccncc3)cc(-c3ccc4c(c3)OCCO4)c2)c1CCC(=O)O` [Example 24, 4-(2-(2-Carboxy-ethyl)-3-{6-[3-(2,3-dihydro-benzo[1,4]dioxin-6-yl)-5-pyridin-4-yl-phenoxy]-hexyl}-phenoxy)-butyric acid], the IC50 turned out to be 0.23 nM. Consider `O=C(O)CCCOc1cccc(CCCCCCOc2cc(-c3ccccn3)cc(-c3ccccn3)c2)c1CCC(=O)O` [Example 26, 4-(2-(2-Carboxy-ethyl)-3-{6-[3,5-di-pyridin-2-yl-phenoxy]-hexyl}-phenoxy)-butyric acid], for which the IC50 came out at 0.97 nM.

For the molecule `Cc1cc(C(F)(F)F)c(-c2cc(OCCCCCCc3cccc(OCCCC(=O)O)c3CCC(=O)O)cc(-c3ccsc3)c2)c(=O)n1C` [Example 28, 4-(2-(2-Carboxy-ethyl)-3-{6-[3-(1,6-dimethyl-2-oxo-4-trifluoromethyl-1,2-dihydro-pyridin-3-yl)-5-thiophen-3-yl-phenoxy]-hexyl}-phenoxy)-butyric acid], the IC50 turned out to be 99.4 nM. As to `O=C(O)CCCOc1cccc(CCCCCCNc2cc(-c3ccsc3)cc(-c3ccsc3)c2)c1CCC(=O)O` [Example 35, 4-{2-(2-Carboxy-ethyl)-3-[6-(3,5-di-thiophen-3-yl-phenylamino)-hexyl]-phenoxy}-butyric acid], the IC50 was found to be 99.1 nM. As to `O=C(O)CCCOc1cccc(CCCCCC#Cc2cc(-c3ccccc3)cc(-c3ccccc3)c2)c1CCC(=O)O` [Example 48, 4-[2-(2-Carboxy-ethyl)-3-(7-[1,1′;3′,1″]terphenyl-5′-yl-hept-6-ynyl)-phenoxy]-butyric acid], the IC50 stood at 2.69 nM. Same read-out and setting: next, `O=C(O)CCCOc1cccc(CCCCCCCc2cc(-c3ccc4c(c3)OCO4)cc(-c3ccc4c(c3)OCO4)c2)c1CCC(=O)O` [Example 52, 4-[3-[7-(3,5-Bis-benzo[1,3]dioxol-5-yl-phenyl)-heptyl]-2-(2-carboxy-ethyl)-phenoxy]-butyric acid]: 42.5 nM; `O=C(O)CCCOc1cccc(CCCCCCOc2cc(-c3ccsc3)cc(-c3ccsc3)c2)c1CCC(=O)O` [Example 56, 4-{2-(2-Carboxy-ethyl)-3-[6-(3,5-di-thiophen-3-yl-phenoxy)-hexyl]-phenoxy}-butyric acid]: 0.58 nM. As to `CN(C)c1ccc(-c2cc(OCCCCCCc3cccc(OCCCC(=O)O)c3CCC(=O)O)cc(-c3ccc(Cl)c(F)c3)c2)cc1` [Example 63, 4-{2-(2-Carboxy-ethyl)-3-[6-(4-chloro-4″-dimethylamino-3-fluoro-[1,1′;3′,1″]terphenyl-5′-yloxy)-hexyl]-phenoxy}-butyric acid], the IC50 was found to be 59.8 nM. `Cc1cc(-c2cc(OCCCCCCc3cccc(OCCCC(=O)O)c3CCC(=O)O)cc(-c3ccc(N(C)C)cc3)c2)ccc1F` [Example 65, 4-{2-(2-Carboxy-ethyl)-3-[6-(4″-dimethylamino-4-fluoro-3-methyl-[1,1′;3′,1″]terphenyl-5′-yloxy)-hexyl]-phenoxy}-butyric acid]: the IC50 was 0.47 nM. Still for that read-out and setting: as for `O=C(O)CCCOc1cccc(CCCCCCOc2cc(-c3ccccc3)cc(-c3ccc(OC(F)(F)F)cc3)c2)c1CCC(=O)O` [Example 70], the figure is 0.58 nM; as for `COc1ccc(-c2cc(OCCCCCCc3cccc(OCCCC(=O)O)c3CCC(=O)O)cc(-c3ccc(OC)cc3)c2)cc1` [Example 88, 4-{2-(2-Carboxy-ethyl)-3-[6-(4,4″-dimethoxy-[1,1′;3′,1″]terphenyl-5′-yloxy)-hexyl]-phenoxy}-butyric acid], 0.61 nM; as for `O=C(O)CCCOc1cccc(CCCCCCOc2cc(-c3ccccc3)cc(-c3ccccc3F)c2)c1CCC(=O)O` [Example 97, 4-{2-(2-Carboxy-ethyl)-3-[6-(2-fluoro-[1,1′;3′,1″]terphenyl-5′-yloxy)-hexyl]-phenoxy}-butyric acid], 0.25 nM.

In general, IC50 refers to the concentration at which inhibition is half-maximal.
